Measurements reported in publication PMC6269967, “Evaluation of the Interaction between Long Telomeric DNA and Macrocyclic Hexaoxazole (6OTD) Dimer of a G-quadruplex Ligand” (Molecules, 2013).
Like-named read-outs stand apart in the source and are kept apart here.

Key:
[1] = tested on: telo24; conditions: earlier work of the authors, reference not given; cited from earlier work
Text: (§1) For evaluations of interaction and stabilization of telomeric DNA with G4 ligands, telo24 DNA, i.e., four sets of (TTAGGG) repeats consisting of 24 bases in total, has been usually used as a telomeric DNA model, because it is a minimum length able to form one unit of G4 structure.

[2] = tested on: long telomeric DNAs telo48, 72, and 96; conditions: ref [53]; cited from earlier work
Text: as §1

[3] = tested on: telo48; conditions: CD at 295 nm, 50 mM Tris–HCl pH 7.5, 100 mM KCl, ref [53], cited from earlier work
Text: (§2) Table 1 Tm values (°C) of telomeric DNAs in the absence or presence of G4 ligands 2 and 3 ^a,b,c. | column: Tm

[4] = tested on: telo24; conditions: telo24 (10 μM), ligand 4 eq.; CD at 295 nm, 50 mM Tris–HCl pH 7.5, 100 mM KCl; 1.0 °C/min; ligand-free Tm 59; ref [53]; cited from earlier work
Text: as §2

[5] = tested on: telomerase; experiment: Telomerase repeat amplification protocol (TRAP) assay, cell-free, PC3 cell lysate; type: biochemical; conditions: telomerase reaction 30 min, 20 °C, average of two independent experiments, read-out: telomerase inhibitory activity, IC50
Description: Finally, we examined the telomerase inhibitory activities of the L2H2-6OTD monomer (2) and its dimer 3 in a cell-free system by telomerase repeat amplification protocol (TRAP) assay using PC3 cell lysate. Telomerase is known to elongate various lengths of telomere sequences, and the stabilization ability of each ligand can be evaluated with TRAP assay.
Telomerase repeat amplification protocol (TRAP) assays were conducted as follows; 1 × 10^5 of PC3 cells were lysed with 200 μL of TRAP lysis buffer, placed on ice for 30 min, and centrifuged for 20 min (15,000 rpm, 4 °C). This TRAP lysate (2.0 μL) was mixed with 10×T-PCR buffer (5.0 μL), 2.5 mM dNTPs (1.0 μL), 50 ng/μL TS primer (5'-d[AATCCGTCGAGCAGAGTT]-3', 2.0 μL), 0.2 pM TSNT (5'-d[[…]]-3', 0.5 μL), DEPC (Diethylpyro carbonate) solution in MilliQ water (30 μL), compounds (DMSO solution, 5.0 μL), and placed on ice for 30 min. After the telomerase reactions (30 min, 20 °C), the reacting solution was placed on ice, 2.0 μL of 10 μM NT primer (5'-d[ATCGCTTCTCGGCCTTTT]-3’), 2.0 μL of […] (5'-d[GCGCGG (CTTACC)3CTAACC]-3') and 0.5 μL of Gene Taq (Nippon Gene, Tokyo, Japan) were added. The three-step PCR was performed: 27 cycles of 94 °C for 25 s, 50 °C for 25 s, and 72 °C for 45 s. […] IC50 value was calculated from average of two independent experiments.

[6] = target: telomerase; conditions: TRAP assay; ref [17],[18],[19],[20],[21],[22]; read-out: telomerase inhibitory activity, IC50; cited from earlier work
Text: At the end of chromosomes, there exists a characteristic region called the telomere. The telomere is composed of double-stranded tandem repeats of (TTAGGG/AATCCC)n sequence amounting to 2–30 kb, to which telomere binding proteins are bound. These sequences are shortened at each cell division, ultimately inducing cell senescence. At the extreme end of these duplex repeats there is a single-stranded 3' overhang, termed the 3' G-tail, consisting of ca. 50−250 nucleotides in total. The G-tail sequence is considered to form G-quadruplexes (G4s), one of the higher-order structures ...

Row | IC50 [5] [nM] | Structure (SMILES) | interaction mode [1] | interaction mode [2] | Tm ([3]; DNA printed telo48 (fourth group), ligand 16 eq., ligand-free Tm 55) [°C] | Tm ([3]; DNA printed telo48 (third group), ligand 12 eq., ligand-free Tm 55) [°C] | Tm ([3]; telo48, ligand 8 eq., 1.0 °C/min, ligand-free Tm 57) [°C] | Tm [4] [°C] | IC50 [6] [nM]
1 | 15 | NCCCC[C@@H]1NC(=O)c2coc(n2)-c2coc(n2)-c2coc(n2)[C@H](CCCCN)NC(=O)c2coc(n2)-c2coc(n2)-c2coc1n2 [compound 2] | strongly interacts with telo24 to form anti-parallel-type G4 structure in an end-stacking mode with two molecules of 2 | each telo24 unit in the long telomeric DNAs interacted with two molecules of L2H2-6OTD (2) in an end-stacking mode, and were induced to take anti-parallel-type topology | 70 | 73 | 76 | 75 | –
2 | – | Cc1oc2nc1-c1nc(co1)-c1nc(co1)-c1nc(co1)-c1nc(co1)-c1nc(co1)C1=NC(CS1)c1nc-2c(C)o1 (centres unmarked) [telomestatin] | – | – | – | – | – | – | 5
